Biological target: T1, Periconia sp. BGLI (recombinant β-glucosidase, bgl1) (Periconia sp. BCC 2871, UniProt A9UIG0, T284I/N305T)
T1 construct: full-length bgl1 (2601 bp cDNA, own signal peptide) expressed in T. reesei QM9414 under tef1 promoter, secreted, culture supernatant; predicted about 95 kDa, glycosylated
Assay: MUG zymogram after native PAGE of culture supernatant
Format: biochemical
Settings: 5 mM MUG, 50 mM sodium citrate, pH 5.0, 70 °C, 10 min
Text: MUG zymogram after native PAGE of culture supernatant on Periconia sp.

T1 sequence (A9UIG0 entry or part of it T284I/N305T): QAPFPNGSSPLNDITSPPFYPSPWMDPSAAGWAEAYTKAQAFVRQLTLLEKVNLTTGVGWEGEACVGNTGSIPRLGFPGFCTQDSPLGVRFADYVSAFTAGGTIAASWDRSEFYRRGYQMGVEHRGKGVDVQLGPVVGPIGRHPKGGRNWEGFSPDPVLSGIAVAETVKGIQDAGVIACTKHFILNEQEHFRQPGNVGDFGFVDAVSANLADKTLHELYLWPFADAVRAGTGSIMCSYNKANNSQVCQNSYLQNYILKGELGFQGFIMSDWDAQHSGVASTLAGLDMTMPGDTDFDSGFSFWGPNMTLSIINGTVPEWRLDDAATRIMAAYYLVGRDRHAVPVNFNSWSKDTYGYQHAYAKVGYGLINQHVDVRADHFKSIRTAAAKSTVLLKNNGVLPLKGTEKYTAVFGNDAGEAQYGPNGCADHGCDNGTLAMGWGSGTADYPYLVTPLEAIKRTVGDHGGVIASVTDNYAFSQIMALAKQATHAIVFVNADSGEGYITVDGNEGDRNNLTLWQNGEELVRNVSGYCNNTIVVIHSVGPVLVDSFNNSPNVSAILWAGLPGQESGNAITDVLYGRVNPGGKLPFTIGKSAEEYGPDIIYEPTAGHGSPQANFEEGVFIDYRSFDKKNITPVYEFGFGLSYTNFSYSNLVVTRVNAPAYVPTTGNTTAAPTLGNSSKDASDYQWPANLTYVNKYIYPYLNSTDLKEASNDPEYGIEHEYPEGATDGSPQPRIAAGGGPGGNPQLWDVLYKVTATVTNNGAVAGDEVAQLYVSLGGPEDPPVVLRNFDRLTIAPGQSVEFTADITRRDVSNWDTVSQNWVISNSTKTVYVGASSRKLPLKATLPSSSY

SMILES: Cc1cc(=O)oc2cc(O[C@@H]3O[C@H](CO)[C@@H](O)[C@H](O)[C@H]3O)ccc12 [4-methylumbelliferyl β-D-glucopyranoside]
- MUG zymogram after native PAGE of culture supernatant: second active β- glucosidase with higher molecular weight was only obtained from the transformants

From publication PMC3434039, “Overexpression of an exotic thermotolerant β-glucosidase in trichoderma reesei and its significant increase in cellulolytic activity and saccharification of barley straw” (Microbial Cell Factories, 2012)
